Consider 27 compounds from US10246456B2, “IRAK4 inhibiting agents” (BIOGEN MA INC., priority 2014, dated 2019).

Each structure is given as a SMILES string. pEC50, pIC50: −log10 of the molar value. Where only a bound is given, the exact number is not on record here.

For one test, the target named is IRAK4 (Homo sapiens (Human), UniProt Q9NWZ3). Briefly: IRAK-4 AlphaScreen biochemical kinase assay. The conditions noted are these: 1 nM IRAK4, 1 mM ATP, 3.5 h at RT. In outline: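 AlphaScreen read-out: streptavidin beads bind the biotinylated peptide and protein A beads bind the anti-phosphothreonine antibody, so energy transfer reports phosphorylation of the peptide. The kinase is human IRAK-4.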
On the technique in general: In Alpha technology, singlet oxygen from a donor bead excites a nearby acceptor bead.

A further test has as its system IL-6 in A549 cells. Briefly: Cell-based IL-6 ELISA assay in IL-1beta stimulated A549 cells. The conditions noted are these: 2 ng/ml human IL-1beta overnight. The protocol: The cell-based assays is based on IL-6 ELISA quantification. Briefly, A549 cells are cultured in DMEM with 10% FBS medium. When cells reach 80% confluence they are trypsin treated and seeded 180 ul/well in 96-well plate at 2.5×10^4 cells/well. Then, 20 ul of compound serial dilutions (starting at 10 uM, 10 points) are added to the cell plate; incubate for 30 min at 37 C and stimulated with 2 ng/ml human IL-1beta 37 C, 5% CO2 overnight. The next day 100 ul of cell supernatant per well are analyzed on a Human IL-6 Quantikine ELISA kit from R&D Systems.
(In general: An ELISA detects its analyte on a solid surface through an enzyme-linked reagent.)

IRAK4, sequence (Q9NWZ3 whole entry, species assumed): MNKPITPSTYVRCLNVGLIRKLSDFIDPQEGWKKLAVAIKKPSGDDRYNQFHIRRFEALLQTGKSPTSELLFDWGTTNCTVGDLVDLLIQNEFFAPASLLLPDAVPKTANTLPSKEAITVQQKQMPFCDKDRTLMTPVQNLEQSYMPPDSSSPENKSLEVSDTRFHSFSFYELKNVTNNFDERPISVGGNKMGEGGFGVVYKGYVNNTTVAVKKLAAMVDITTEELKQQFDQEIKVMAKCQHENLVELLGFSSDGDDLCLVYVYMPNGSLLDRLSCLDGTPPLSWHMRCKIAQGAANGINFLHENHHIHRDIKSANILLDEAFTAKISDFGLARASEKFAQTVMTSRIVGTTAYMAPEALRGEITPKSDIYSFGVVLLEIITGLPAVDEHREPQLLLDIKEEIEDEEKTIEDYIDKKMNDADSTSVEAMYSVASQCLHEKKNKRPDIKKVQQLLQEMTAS

In the case of `CCC[C@H](N)c1cccc(-c2cc(N3CCC(C(=O)O)C3)c3cnn(-c4cccc(CO)n4)c3c2)n1` (stereo partly drawn) [Example 341, 1-(6-(6-((S)-1-aminobutyl)pyridin-2-yl)-1-(6-(hydroxymethyl)pyridin-2-yl)-1H-indazol-4-yl)pyrrolidine-3-carboxylic acid], the negative logarithm of the IC50 (pIC50) (usually the IC50 on a negative log10 scale, so that one unit is a factor of ten) against IRAK4 was above 7.00. The negative logarithm of the EC50 (pEC50) (as a rule, the EC50 on a negative log10 scale, so that one unit is a factor of ten) in the test on IL-6 in A549 cells was at least 6.00.

`CCC[C@H](N)c1cccc(-c2cc(N3CCCC3)c3cnn(-c4cccc(CO)n4)c3c2)n1` [Example 342, (S)-(6-(6-(6-(1-aminobutyl)pyridin-2-yl)-4-(pyrrolidin-1-yl)-1H-indazol-1-yl)pyridin-2-yl)methanol] gave a pIC50 against IRAK4 above 7.00. This compound gave a pEC50 in the test on IL-6 in A549 cells of at least 6.00.

On to `CCC[C@H](N)c1cccc(-c2cc(N3CCN(C)CC3)c3cnn(-c4cccc(CO)n4)c3c2)n1` [Example 343, (S)-(6-(6-(6-(1-aminobutyl)pyridin-2-yl)-4-(4-methylpiperazin-1-yl)-1H-indazol-1-yl)pyridin-2-yl)methanol], for which, on IRAK4, the pIC50 is above 7.00. This compound also showed a negative-log EC50 (pEC50) with IL-6 in A549 cells of at least 6.00.

In the case of `CCC[C@H](N)c1cccc(-c2cc(NCC(C)(C)CCl)c3cnn(-c4cccc(CO)n4)c3c2)n1` [Example 344, (S)-(6-(6-(6-(1-aminobutyl)pyridin-2-yl)-4-((3-chloro-2,2-dimethylpropyl)amino)-1H-indazol-1-yl)pyridin-2-yl)methanol], the negative-log IC50 (pIC50) on IRAK4 was above 7.00. In the test with IL-6 in A549 cells, the negative logarithm of the EC50 (pEC50) is at least 6.00.

On to `CCC[C@H](N)c1cccc(-c2cc(N3CCC(F)(F)CC3)c3cnn(-c4cccc(CO)n4)c3c2)n1` [Example 346, (S)-(6-(6-(6-(1-aminobutyl)pyridin-2-yl)-4-(4,4-difluoropiperidin-1-yl)-1H-indazol-1-yl)pyridin-2-yl)methanol], for which the pIC50 against IRAK4 was above 7.00. This compound also had a negative logarithm of the EC50 (pEC50) in the test with IL-6 in A549 cells of at least 6.00.

In the case of `CCC[C@H](N)c1cccc(-c2cc(N3CCCC(F)(F)C3)c3cnn(-c4cccc(CO)n4)c3c2)n1` [Example 347, (S)-(6-(6-(6-(1-aminobutyl)pyridin-2-yl)-4-(3,3-difluoropiperidin-1-yl)-1H-indazol-1-yl)pyridin-2-yl)methanol], at IRAK4, the negative logarithm of the IC50 (pIC50) was above 7.00. For the same compound, the pEC50 in the test with IL-6 in A549 cells is at least 6.00.

At IRAK4, `CCC[C@H](N)c1cccc(-c2cc(N3CC(C(=O)O)C3)c3cnn(-c4cccc(CO)n4)c3c2)n1` [Example 348, (S)-1-(6-(6-(1-aminobutyl)pyridin-2-yl)-1-(6-(hydroxymethyl)pyridin-2-yl)-1H-indazol-4-yl)azetidine-3-carboxylic acid] had a pIC50 above 7.00. The pEC50 with IL-6 in A549 cells is at least 6.00.

`CCC[C@H](N)c1cccc(-c2cc(N3CCCC(C(=O)O)C3)c3cnn(-c4cccc(CO)n4)c3c2)n1` (stereo partly drawn) [Example 349, 1-(6-(6-((S)-1-aminobutyl)pyridin-2-yl)-1-(6-(hydroxymethyl)pyridin-2-yl)-1H-indazol-4-yl)piperidine-3-carboxylic acid] had a negative-log IC50 (pIC50) on IRAK4 above 7.00. In addition, the negative logarithm of the EC50 (pEC50) in the test with IL-6 in A549 cells is at least 6.00.

On IRAK4, `CCC[C@H](N)c1cccc(-c2cc(N3CCC(C(=O)O)CC3)c3cnn(-c4cccc(CO)n4)c3c2)n1` [Example 350, (S)-1-(6-(6-(1-aminobutyl)pyridin-2-yl)-1-(6-(hydroxymethyl)pyridin-2-yl)-1H-indazol-4-yl)piperidine-4-carboxylic acid] showed a pIC50 above 7.00. Besides, the pEC50 with IL-6 in A549 cells was 5.00 to 6.00.

In turn, `C[C@H](N)c1cccc(-c2cc(-n3ccnc3)c3cnn(-c4cccc(CO)n4)c3c2)n1` [Example 354, (S)-(6-(6-(6-(1-aminoethyl)pyridin-2-yl)-4-(1H-imidazol-1-yl)-1H-indazol-1-yl)pyridin-2-yl)methanol] had a pIC50 at IRAK4 above 7.00. The same compound showed a pEC50 in the test on IL-6 in A549 cells of at least 6.00.

On to `C[C@H](N)c1cccc(-c2cc(-n3cncn3)c3cnn(-c4cccc(CO)n4)c3c2)n1` [Example 355, (S)-(6-(6-(6-(1-aminoethyl)pyridin-2-yl)-4-(1H-1,2,4-triazol-1-yl)-1H-indazol-1-yl)pyridin-2-yl)methanol], for which the negative logarithm of the IC50 (pIC50) against IRAK4 is above 7.00. The compound also showed a pEC50 with IL-6 in A549 cells of at least 6.00.

Take `C[C@H](N)c1cccc(-c2cc(-n3ccc(C(F)(F)F)n3)c3cnn(-c4cccc(CO)n4)c3c2)n1` [Example 356, (S)-(6-(6-(6-(1-aminoethyl)pyridin-2-yl)-4-(3-(trifluoromethyl)-1H-pyrazol-1-yl)-1H-indazol-1-yl)pyridin-2-yl)methanol]: the pIC50 against IRAK4 was above 7.00. The compound further had a negative logarithm of the EC50 (pEC50) in the test on IL-6 in A549 cells of 5.00 to 6.00.

Consider `C[C@H](N)c1cccc(-c2cc(-c3ccn(C)n3)c3cnn(-c4cccc(CO)n4)c3c2)n1` [Example 357, (S)-(6-(6-(6-(1-aminoethyl)pyridin-2-yl)-4-(1-methyl-1H-pyrazol-3-yl)-1H-indazol-1-yl)pyridin-2-yl)methanol], for which, at IRAK4, the pIC50 is above 7.00. This compound also showed a pEC50 with IL-6 in A549 cells of at least 6.00.

On IRAK4, `C[C@H](N)c1cccc(-c2cc(-c3ncco3)c3cnn(-c4cccc(CO)n4)c3c2)n1` [Example 359, (S)-(6-(6-(6-(1-aminoethyl)pyridin-2-yl)-4-(oxazol-2-yl)-1H-indazol-1-yl)pyridin-2-yl)methanol] had a pIC50 above 7.00. Further, the negative logarithm of the EC50 (pEC50) in the test with IL-6 in A549 cells was at least 6.00.

With `CC[C@H](N)c1cccc(-c2cc(-c3ccn(C)n3)c3cnn(-c4cccc(CO)n4)c3c2)n1` [Example 360, (S)-(6-(6-(6-(1-aminopropyl)pyridin-2-yl)-4-(1-methyl-1H-pyrazol-3-yl)-1H-indazol-1-yl)pyridin-2-yl)methanol], the negative logarithm of the IC50 (pIC50) at IRAK4 is above 7.00. The negative-log EC50 (pEC50) in the test on IL-6 in A549 cells was at least 6.00.

In the case of `CCC[C@H](N)c1cccc(-c2cc(-c3ccn(C)n3)c3cnn(-c4cccc(CO)n4)c3c2)n1` [Example 361], the pIC50 at IRAK4 is above 7.00. This compound showed a pEC50 in the test on IL-6 in A549 cells of at least 6.00.

As to `Cc1nnc(-c2cc(-c3cccc([C@H](C)N)n3)cc3c2cnn3-c2cccc(CO)n2)s1` [Example 362, (S)-(6-(6-(6-(1-aminoethyl)pyridin-2-yl)-4-(5-methyl-1,3,4-thiadiazol-2-yl)-1H-indazol-1-yl)pyridin-2-yl)methanol], at IRAK4, the negative-log IC50 (pIC50) is above 7.00. Also, the pEC50 with IL-6 in A549 cells is at least 6.00.

In turn, `C[C@H](N)c1cccc(-c2cc(-c3cn(C)cn3)c3cnn(-c4cccc(CO)n4)c3c2)n1` [Example 363, (S)-(6-(6-(6-(1-aminoethyl)pyridin-2-yl)-4-(1-methyl-1H-imidazol-4-yl)-1H-indazol-1-yl)pyridin-2-yl)methanol] had a pIC50 against IRAK4 above 7.00. In the test with IL-6 in A549 cells, this compound gave a pEC50 of at least 6.00.

With `C[C@H](N)c1cccc(-c2cc(-c3ncccn3)c3cnn(-c4cccc(CO)n4)c3c2)n1` [Example 364, (S)-(6-(6-(6-(1-aminoethyl)pyridin-2-yl)-4-(pyrimidin-2-yl)-1H-indazol-1-yl)pyridin-2-yl)methanol], the pIC50 against IRAK4 is above 7.00. In addition, in the test with IL-6 in A549 cells, the pEC50 is at least 6.00.

At IRAK4, `Cc1cc(-c2cc(-c3cccc([C@H](C)N)n3)cc3c2cnn3-c2cccc(CO)n2)nn1C` [Example 365, (S)-(6-(6-(6-(1-aminoethyl)pyridin-2-yl)-4-(1,5-dimethyl-1H-pyrazol-3-yl)-1H-indazol-1-yl)pyridin-2-yl)methanol] showed a negative-log IC50 (pIC50) above 7.00. Besides, the negative-log EC50 (pEC50) with IL-6 in A549 cells is at least 6.00.

In the case of `Cc1cc(-c2cc(-c3cccc([C@H](C)N)n3)cc3c2cnn3-c2cccc(CO)n2)n[nH]1` [Example 366, (S)-(6-(6-(6-(1-aminoethyl)pyridin-2-yl)-4-(5-methyl-1H-pyrazol-3-yl)-1H-indazol-1-yl)pyridin-2-yl)methanol], the pIC50 against IRAK4 was above 7.00. Also, the pEC50 with IL-6 in A549 cells was at least 6.00.

The compound `C[C@H](N)c1cccc(-c2cc(-c3cnn(C)c3)c3cnn(-c4cccc(CO)n4)c3c2)n1` [Example 367, (S)-(6-(6-(6-(1-aminoethyl)pyridin-2-yl)-4-(1-methyl-1H-pyrazol-4-yl)-1H-indazol-1-yl)pyridin-2-yl)methanol] had a negative logarithm of the IC50 (pIC50) against IRAK4 above 7.00. The compound also showed a pEC50 with IL-6 in A549 cells of at least 6.00.

Compound `Cc1nc(-c2cc(-c3cccc([C@H](C)N)n3)cc3c2cnn3-c2cccc(CO)n2)cs1` [Example 368, (S)-(6-(6-(6-(1-aminoethyl)pyridin-2-yl)-4-(2-methylthiazol-4-yl)-1H-indazol-1-yl)pyridin-2-yl)methanol] gave a negative-log IC50 (pIC50) on IRAK4 above 7.00. Moreover, the negative-log EC50 (pEC50) in the test with IL-6 in A549 cells is at least 6.00.

As for `C[C@H](N)c1cccc(-c2cc(-c3nc(C#N)cs3)c3cnn(-c4cccc(CO)n4)c3c2)n1` [Example 369, (S)-2-(6-(6-(1-aminoethyl)pyridin-2-yl)-1-(6-(hydroxymethyl)pyridin-2-yl)-1H-indazol-4-yl)thiazol-4-carbonitrile], on IRAK4, the negative-log IC50 (pIC50) was above 7.00. In addition, in the test on IL-6 in A549 cells, the negative logarithm of the EC50 (pEC50) was at least 6.00.

On IRAK4, `C[C@H](N)c1cccc(-c2cc(-c3ccsn3)c3cnn(-c4cccc(CO)n4)c3c2)n1` [Example 370, (S)-(6-(6-(6-(1-aminoethyl)pyridi9n-2-yl)-4-(isothiazol-3-yl)-1H-indazol-1-yl)pyridin-2-yl)methanol] had a pIC50 above 7.00. This compound gave a pEC50 with IL-6 in A549 cells of at least 6.00.

Regarding `C[C@H](N)c1cccc(-c2cc(-c3ccccc3)c3cnn(-c4cccc(CO)n4)c3c2)n1` [Example 371, (S)-(6-(6-(6-(1-aminoethyl)pyridin-2-yl)-4-phenyl-1H-indazol-1-yl)pyridin-2-yl)methanol], the pIC50 against IRAK4 was above 7.00. In addition, the pEC50 in the test with IL-6 in A549 cells was at least 6.00.

At IRAK4, `Cc1cnc(-c2cc(-c3cccc([C@H](C)N)n3)cc3c2cnn3-c2cccc(CO)n2)s1` [Example 372, (S)-(6-(6-(6-(1-aminoethyl)pyridin-2-yl)-4-(5-methylthiazol-2-yl)-1H-indazol-1-yl)pyridin-2-yl)methanol] had a negative logarithm of the IC50 (pIC50) above 7.00. This compound also had a pEC50 with IL-6 in A549 cells of at least 6.00.
